Tests used:
[1] = tested on: human ES cells co-cultured with Transwell-AMLCs; assay: Transwell co-culture assay of AMLCs and human ES cells; type: cell-based; conditions: 5 μM in Transwell co-culture, 48 h
Method: Immunocytochemistry. hPSCs were fixed in 4% paraformaldehyde (PFA; buffered in 1× PBS) for 12 h, and permeabilized in 0.1% SDS solution (sodium dodecyl sulphate, dissolved in PBS) for another 3 h. Samples were then blocked in 4% donkey serum (Sigma-Aldrich) at 4° C. for 24 h, followed by incubation with primary antibody solutions at 4° C. for another 24 h. Samples were then labelled with donkey-raised secondary antibodies (1:500 dilution) at 4° C. for 24 h, 4,6-diamidino-2-phenylindole (DAPI; Thermo Fisher Scientific) was used for counterstaining cell nuclei. Alexa Fluor dye-conjugated WGA (Thermo Fisher Scientific) and phalloidin (Invitrogen) were used for visualization of cell membrane and actin microfilaments, respectively. Both primary and secondary antibodies were prepared in 4% donkey serum supplemented with 0.1% NaN3. Seventy microlitre antibody solutions were added to each medium reservoir for immunostaining. The asymmetric embryonic-like sac structure was assessed by immunocytochemistry to confirm molecular asymmetry at t=36 h (for P-ELS: co-staining for TFAP2A and T; for A-ELS: co-staining for TFAP2A and NANOG). In situ hybridization. […] For morphogenetic quantification, bright-field or phase-contrast images were acquired using a Zeiss Observer Z1 microscope (Carl Zeiss MicroImaging) equipped with a monochrome CCD camera (AxioCam, Carl Zeiss MicroImaging). […]

[2] = tested on: PrePS-EPI-like cells in P-ELS; assay: Posterior primitive streak-like cell development in P-ELS with antagonists in the induction channel; type: cell-based, human
Excerpt: (§1) Cell lines. hPSC lines used in this study include H1 human ES cell (WA01, WiCell; NIH registration number: 0043), H9 human ES cell (WA09, WiCell; NIH registration number: 0062) and 1196a (a human iPSC line from the University of Michigan Pluripotent Stem Cell Core31). All hPSC lines have been authenticated by original sources as well as in-house by immunostaining for pluripotency markers and successful differentiation to the three germ layers. All hPSC lines are maintained in a feeder-free system for at least ten passages and authenticated as karyotypically normal. Karyotype analysis was performed by Cell Line Genetics. All hPSC lines are tested negative for mycoplasma contamination (LookOut Mycoplasma PCR Detection Kit, Sigma-Aldrich). Cell culture. hPSCs were maintained in a standard feeder-free culture system using mTeSR medium (mTeSR; STEMCELL Technologies) or TeSR-E8 medium (Essential 8 or E8; STEMCELL Technologies) and lactate dehydrogenase-elevating virus (LDEV)-free, human ES cell-qualified reduced growth factor basement membrane matrix Geltrex (Thermo Fisher Scientific; derived from Engelbreth-Holm-Swarm tumors similarly to Matrigel). Cell cultures were visually examined during each passage to ensure absence of spontaneously differentiated, mesenchymal-like cells in culture. All hPSCs were used before reaching P70. Device fabrication. The microfluidic device consists of a polydimethylsiloxane (PDMS) structure layer bonded to a coverslip. The PDMS structure layer is made by mixing PDMS curing agent and base polymer (Sylgard 184; Dow Coming) at a ratio of 1:10 before casting PDMS prepolymer onto a microfabricated silicon mold and baking at 110° C. for 40 min. Medium reservoirs (8 mm in diameter) and gel-loading ports (1.2 mm in diameter) were then punched into the PDMS structure layer using Harris Uni-Core punch tools (Ted Pella). After cleaning with ethanol and air plasma activation, the PDMS structure layer was bonded to a coverslip before baking at 80° C. overnight. Before usage, the microfluidic device was sterilized under UV light for 30 min. […]

[3] = tested on: hPGCLCs in P-ELS; assay: hPGCLC specification in P-ELS; type: cell-based, human; conditions: P-ELS treated with 0.4 μM or 2 μM
Excerpt: as §1, with “fabrication.” for “fabrication. The microfluidic device consists of a polydimethylsiloxane (PDMS) structure layer bonded to a coverslip. The PDMS structure layer is made by mixing PDMS curing agent and base polymer (Sylgard 184; Dow Coming) at a ratio of 1:10 before casting PDMS prepolymer onto a microfabricated silicon mold and baking at 110° C. for 40 min. Medium reservoirs (8 mm in diameter) and gel-loading ports (1.2 mm in diameter) were then punched into the PDMS structure layer using Harris Uni-Core punch tools (Ted Pella). After cleaning with ethanol and air plasma activation, the PDMS structure layer was bonded to a coverslip before baking at 80° C. overnight. Before usage, the microfluidic device was sterilized under UV light for 30 min.”

Cc1ccc2nc(NC(=O)CSc3nc4c(c(=O)n3-c3ccccc3)SCC4)sc2c1 [IWP2]
Differentiation of posterior primitive streak-like cells [1]: inhibited | Inhibition of induction of MeLC in posteriorized embryonic-like sac ([2]; IWR1 10 μM or IWP2 5 μM): inhibited | Inhibition of PrePS-EPI-like cell development ([2]; supplemented in the induction channel (IWP2 5 μM, IWR1 10 μM, noggin 50 ng ml^−1), BMP4 in cell-loading channel): completely inhibited

O=C(Nc1cccc2cccnc12)c1ccc(N2C(=O)[C@@H]3[C@H](C2=O)[C@@H]2C=C[C@H]3C2)cc1 [IWR1]
Effect on progressive development of P-ELS ([2]; prolonged culture to t=48 h, IWR1 10 μM in induction channel): does not affect

O=C(NNc1nc2cc(F)ccc2n2cccc12)c1cnccn1 [SC144]
Effect on hPGCLC specification [3]: did not affect
